The text below walks through data of PMC9184620, “TAS1553, a small molecule subunit interaction inhibitor of ribonucleotide reductase, exhibits antitumor activity by causing DNA replication stress” (Communications Biology, 2022).

Ends that are not written are not given here.

The term IC50 denotes the concentration that gives 50% inhibition.

Test [1] concerns the target T1, human R1 (Homo sapiens, UniProt P23921).
T1 construct: made in house; host or cells: Escherichia coli
T1 sequence (P23921 1-792): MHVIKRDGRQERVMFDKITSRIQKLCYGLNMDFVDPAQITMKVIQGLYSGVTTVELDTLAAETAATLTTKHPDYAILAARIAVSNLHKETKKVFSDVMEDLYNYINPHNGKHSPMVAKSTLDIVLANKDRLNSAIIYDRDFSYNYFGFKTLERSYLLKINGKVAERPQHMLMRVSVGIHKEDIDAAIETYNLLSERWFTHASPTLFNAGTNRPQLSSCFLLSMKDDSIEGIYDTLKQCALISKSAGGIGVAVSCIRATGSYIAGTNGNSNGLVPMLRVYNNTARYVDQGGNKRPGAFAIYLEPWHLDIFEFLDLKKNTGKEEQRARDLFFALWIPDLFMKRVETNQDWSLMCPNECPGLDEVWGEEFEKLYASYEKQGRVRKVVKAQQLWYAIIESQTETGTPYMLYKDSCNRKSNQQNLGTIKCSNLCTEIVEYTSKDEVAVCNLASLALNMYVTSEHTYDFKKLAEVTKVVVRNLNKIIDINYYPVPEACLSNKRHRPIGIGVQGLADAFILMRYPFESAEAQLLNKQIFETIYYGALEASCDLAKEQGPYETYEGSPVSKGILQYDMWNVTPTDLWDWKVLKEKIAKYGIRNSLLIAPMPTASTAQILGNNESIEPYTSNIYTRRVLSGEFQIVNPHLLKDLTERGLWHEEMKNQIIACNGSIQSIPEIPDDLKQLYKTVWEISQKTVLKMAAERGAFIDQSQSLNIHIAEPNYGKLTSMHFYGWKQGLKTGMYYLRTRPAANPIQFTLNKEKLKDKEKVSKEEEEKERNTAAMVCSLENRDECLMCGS
Briefly: Fluorescence polarization binding assay (displacement of TAMRA-labeled P7 from R1). As to conditions: for IC50: R1 and TAMRA-labeled P7, mean ± SD, three independent experiments, read-out: IC50, fluorescent polarization binding assay. From the text:
Fig. 1 Design and identification of the small molecule compound TAS1553 blocking the interaction between RNR subunits. a A schematic representation of the fluorescent polarization binding assay. TAMRA-labeled P7 heptapeptide was used as a probe. […] Data are presented as mean ± SD obtained from three independent experiments. c Chemical structures of compound 1 and TAS1553. d Superposition of the X-ray co-crystal structure of human RRM1 (green) with compound 1 (magenta) (PDB ID: 6L3R) to the previously determined X-ray co-crystal structure of Saccharomyces cerevisiae RNR1 (cyan) with P7 peptide (yellow) (PDB ID: 2ZLF). The residue numbers and protein surface shown here are those of hRRM1. e SPR analysis for the binding of TAS1553 to human R1 captured onto Series S Sensor Chip NTA. […] IC50 (mean ± SD) is determined from three independent experiments performed in triplicate.
TAMRA-labeled P7 peptide was obtained from Peptide Institute, Inc. to be used as a fluorescent probe in the FP binding assay. The final reaction mixture was composed of 50 mmol/L Tris-Cl (pH 8.0), 10 mmol/L DTT, 10 nmol/L TAMRA-P7, 32 ng/mL His-R1, and 1% DMSO with or without test compound. The assay was performed for 120 min at room temperature with protection from light, after which FP of each sample was measured with a PHERAstarFS. IC50 values were calculated using the SAS software package in EXSUS (CAC Croit).
(Polarisation of emitted light reports the rotation of a fluorescent probe.)

In test [2] the target is T2, interaction between R1 and R2 (human RNR) (Homo sapiens, UniProt P23921).
T2 construct: host or cells: Escherichia coli (His-R1)
T2 sequence (P23921 1-792): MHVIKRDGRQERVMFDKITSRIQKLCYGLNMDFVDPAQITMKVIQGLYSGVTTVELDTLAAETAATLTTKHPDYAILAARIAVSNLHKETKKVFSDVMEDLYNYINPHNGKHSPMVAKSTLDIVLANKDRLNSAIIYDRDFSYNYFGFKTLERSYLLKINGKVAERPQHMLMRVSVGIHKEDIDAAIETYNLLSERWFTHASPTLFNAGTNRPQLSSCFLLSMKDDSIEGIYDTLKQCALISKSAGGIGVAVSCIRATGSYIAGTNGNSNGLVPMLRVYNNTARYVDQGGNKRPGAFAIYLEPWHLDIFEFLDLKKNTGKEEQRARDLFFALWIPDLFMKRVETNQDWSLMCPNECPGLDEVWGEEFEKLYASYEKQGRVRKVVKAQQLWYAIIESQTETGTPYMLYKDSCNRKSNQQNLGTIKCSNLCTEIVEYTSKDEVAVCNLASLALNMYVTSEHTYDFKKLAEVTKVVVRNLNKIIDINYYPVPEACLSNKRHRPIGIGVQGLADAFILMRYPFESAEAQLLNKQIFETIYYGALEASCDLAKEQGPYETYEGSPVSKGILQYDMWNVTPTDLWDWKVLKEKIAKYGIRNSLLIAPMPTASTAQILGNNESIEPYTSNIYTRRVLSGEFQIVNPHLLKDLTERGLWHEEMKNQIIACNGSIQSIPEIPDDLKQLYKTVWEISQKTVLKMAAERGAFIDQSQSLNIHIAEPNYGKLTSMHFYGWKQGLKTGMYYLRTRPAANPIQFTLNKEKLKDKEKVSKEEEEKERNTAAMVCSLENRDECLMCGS
Put plainly: AlphaLISA binding assay (interaction between His-R1 and GST-R2). As to conditions: recombinant R1 and R2; mean ± SD. Background: Alpha assays give light when donor and acceptor beads are brought close together.

Test [3] concerns the target T3, RNR (R1 and R2 recombinant proteins) (Homo sapiens, UniProt P23921).
T3 construct: made in house; host or cells: Escherichia coli
T3 sequence (P23921 1-792): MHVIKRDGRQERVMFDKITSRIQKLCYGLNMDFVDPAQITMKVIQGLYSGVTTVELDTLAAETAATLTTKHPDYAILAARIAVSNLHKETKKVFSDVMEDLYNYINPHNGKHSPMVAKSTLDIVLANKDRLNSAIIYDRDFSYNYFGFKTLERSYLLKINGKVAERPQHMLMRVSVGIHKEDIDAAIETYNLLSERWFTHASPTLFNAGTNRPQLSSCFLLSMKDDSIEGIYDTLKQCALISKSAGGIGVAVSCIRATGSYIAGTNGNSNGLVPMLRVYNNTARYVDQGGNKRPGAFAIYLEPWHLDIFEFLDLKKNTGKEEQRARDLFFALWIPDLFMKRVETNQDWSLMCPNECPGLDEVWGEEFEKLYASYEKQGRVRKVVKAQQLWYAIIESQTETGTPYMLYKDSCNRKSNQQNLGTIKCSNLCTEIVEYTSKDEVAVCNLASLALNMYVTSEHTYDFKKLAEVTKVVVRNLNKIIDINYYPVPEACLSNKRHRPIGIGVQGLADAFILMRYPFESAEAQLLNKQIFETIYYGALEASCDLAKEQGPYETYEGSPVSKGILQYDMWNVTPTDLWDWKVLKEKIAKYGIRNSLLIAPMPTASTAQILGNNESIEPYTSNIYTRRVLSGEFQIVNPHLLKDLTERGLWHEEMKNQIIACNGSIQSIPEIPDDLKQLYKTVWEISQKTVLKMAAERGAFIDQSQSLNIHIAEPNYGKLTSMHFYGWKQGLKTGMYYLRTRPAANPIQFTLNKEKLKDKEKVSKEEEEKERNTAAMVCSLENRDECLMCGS
Put plainly: RNR assay (formation of dCDP from CDP). As to conditions: CDP to dCDP; mean ± SD; read-out: Enzyme IC50. The format is biochemical. Here is the method: The binding affinity of TAS1553 to the R1 subunit was investigated using surface plasmon resonance (SPR) binding analysis. […] Next, we evaluated the inhibitory effect of TAS1553 against the enzymatic activity of RNR, consisting of R1 and R2 recombinant proteins. RNR activity was determined by its ability to reduce cytidine diphosphate (CDP) to deoxycytidine diphosphate (dCDP), based on a previous report. […] In addition to the inhibitory effect on RNR, TAS1553 was evaluated in a Eurofins LeadProfilingScreen panel assay including 68 proteins, such as ion channels, transporters, nuclear receptors, and G protein-coupled receptors, to examine its potential adverse activity.
The inhibition of RNR activity by the test compound was evaluated by measuring the formation of dCDP from CDP, as reported previously. The assay was performed for 30 min at 37 °C in a reaction mixture composed of 50 mmol/L HEPES, 4 mmol/L magnesium acetate, 100 mmol/L KCl, 6 mmol/L DTT, 2 mmol/L ATP, 0.24 mmol/L NADPH, 10.0 µmol/L CDP, 0.1 mg/mL BSA, 8.0 µg/mL His-R1, 2.4 µg/mL His-R2, and 1% DMSO with or without test compound. The reaction was discontinued by heat treatment at 95 °C for 5 min. The amount of dCDP after the reaction was quantified by a prominence HPLC system and LabSolutions software (SHIMADZU CORPORATION). Separations were performed at 265 nm in a Shim-pack XR-ODS column of particle size 2.2 μm (100 × 3.0 mm, SHIMADZU GLC Ltd.). Overall, 5 µL of each sample was injected, and chromatography was performed at 40 °C. Mobile A was composed of 10 mmol/L potassium dihydrogenphosphate, 10 mmol/L tetrabutylammonium hydroxide, 0.25% methanol and 8 mmol/L HCl. Mobile B was composed of 50 mmol/L potassium dihydrogenphosphate, 5.6 mmol/L tetrabutylammonium hydroxide, and 30% methanol. The gradient was as follows: 52–60% B for 9 min, 60–99% B for 1 min, 99% B for 5 min, 99–52% B for 1 min, and 52% B for 5 min. The flow rate was 0.5 mL/min. The experiment was performed in triplicates. IC50 values were calculated using the SAS software package.

Test [4] deals with MV-4-11 xenograft. Briefly: Antitumor activity in rats bearing MV-4-11 xenografts. It is filed as in vivo. As to conditions: 32 mg/kg intravenously for 5 consecutive days. Here is the method: Next, we evaluated the antitumor activity of a high-dose administration of TAS1553 and cytarabine in rats bearing MV-4-11 xenografts. […] The rats were treated with cytarabine for 5 days at 16 and 32 mg/kg. […] In addition to the hematologic tumor, we evaluated the antitumor activity of TAS1553 in mice implanted with HCC38 cell line as a solid tumor model. […] Finally, TAS1553 was evaluated for its survival benefit in a mouse model. To achieve this, we established mice bone marrow cells harboring the human MLL-AF9 fusion gene, which is known as a driver gene for AML in humans as well as mice[48].
For the subcutaneous implantation model of MV-4-11, F344/NJcl-rnu/rnu rats were irradiated with X-ray (4 Gy) to improve the efficiency of xenograft implantation. Two days after X-ray irradiation, MV-4-11 cells suspended in PBS with 50 vol% Matrigel were inoculated into the rats (2 × 10^7 cells/animal). In the mice subcutaneous implantation model, HCC38 cells suspended same as above were inoculated into male BALB/cAJcl-nu/nu mice (1 × 10^7 cells /body). […] Antitumor activity and body weight change were evaluated as previously reported. Dunnett test using the SAS software package in EXSUS (CAC Croit) was used to compare the tumor volume (P < 0.05).

Test [5] addresses T4, 6x His-tagged recombinant human R1 (RRM1) (human, UniProt P23921 1-792).
T4 construct: also called His-R1; hRRM1
T4 sequence (looked up): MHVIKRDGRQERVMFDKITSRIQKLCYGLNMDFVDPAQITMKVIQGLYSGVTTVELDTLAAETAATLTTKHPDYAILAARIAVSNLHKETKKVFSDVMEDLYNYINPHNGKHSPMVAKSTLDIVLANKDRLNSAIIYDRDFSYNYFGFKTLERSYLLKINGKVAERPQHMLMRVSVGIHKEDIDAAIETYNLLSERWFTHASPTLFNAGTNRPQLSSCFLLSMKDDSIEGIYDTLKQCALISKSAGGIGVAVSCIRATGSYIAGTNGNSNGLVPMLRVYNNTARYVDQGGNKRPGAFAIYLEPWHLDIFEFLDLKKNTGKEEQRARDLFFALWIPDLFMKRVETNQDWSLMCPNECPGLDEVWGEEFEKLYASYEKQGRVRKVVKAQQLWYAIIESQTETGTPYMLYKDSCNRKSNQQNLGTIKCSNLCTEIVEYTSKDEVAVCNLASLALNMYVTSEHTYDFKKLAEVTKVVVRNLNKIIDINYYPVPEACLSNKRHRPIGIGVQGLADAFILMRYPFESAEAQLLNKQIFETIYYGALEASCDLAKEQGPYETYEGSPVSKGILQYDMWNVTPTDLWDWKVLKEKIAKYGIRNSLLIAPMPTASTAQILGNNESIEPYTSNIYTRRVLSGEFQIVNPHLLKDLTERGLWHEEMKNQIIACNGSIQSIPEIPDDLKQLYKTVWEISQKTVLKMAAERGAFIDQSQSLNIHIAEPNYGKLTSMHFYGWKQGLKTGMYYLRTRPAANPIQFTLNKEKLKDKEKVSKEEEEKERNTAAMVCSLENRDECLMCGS
Briefly: fluorescence polarisation; competition: 10 nmol/L TAMRA-P7 probe, 32 ng/mL His-R1, with or without test compound; 50 mmol/L Tris-Cl pH 8.0, 10 mmol/L DTT, 1% DMSO; 120 min, room temperature. As to conditions: both partners purified.

Test [6] addresses T4, 6x His-tagged recombinant human R1 …. Put plainly: AlphaScreen or HTRF; AlphaLISA: 4.3 ug/mL His-R1 (Nickel Chelate Acceptor beads), 3.3 ug/mL GST-R2 (Glutathione Donor beads), with or without test compound; 50 mmol/L HEPES, 4 mmol/L magnesium acetate, 100 mmol/L KCl, 6 mmol/L DTT, 2 mmol/L ATP, 0.24 mmol/L NADPH, 0.010 mmol/L CDP, 0.1 vol% polysorbate 20, 1 vol% DMSO; 60 min, room temperature. As to conditions: both partners purified.

With `O=C(N[C@@H](Cc1ccccc1)C(=O)O)OCC1c2ccccc2-c2ccccc21` [Fmoc-L-phenylalanine, reference compound], in test [1], the IC50 was found to be 934 ± 35 µM.
As to `C[C@H](c1cccc2ccccc12)[C@H](NS(=O)(=O)c1ccc(Br)cc1)c1n[nH]c(=O)o1` [compound 1, 4-bromo-N-[(1S,2R)-2-(naphthalen-1-yl)-1-(5-oxo-4,5-dihydro-1,3,4-oxadiazol-2-yl)propyl]benzenesulfonamide], in test [1] (FP binding IC50 ratio), the “potency relative to Fmoc-L-phenylalanine (binding inhibition)” value is on record as ~ 2000 fold. Further, the IC50 in test [1] worked out at 0.527 ± 0.021 µM.
On to `NC(=O)NO` [HU, Hydroxyurea, reference compound], for which the figures for the IC50 in test [2] and in test [3] were over 1000 µM and 188 ± 32 µM, respectively.
Take `Nc1ccn([C@@H]2O[C@H](CO)[C@@H](O)[C@@H]2O)c(=O)n1` [cytarabine, reference compound]: in test [4], the T/C ratio came out at 77.4%.

B1: TAMRA-labeled P7 peptide (peptide)
peptide: FTLDADF
modifications: also: TAMRA label, site not given here
notes: also called TAMRA-P7; fluorescence tagged P7; source: synthetic peptide; bought: Peptide Institute, Inc
Regarding B1, in test [5], the binding result is recorded as “binds”.

B2: P7 heptapeptide (N-AcFTLDADF) (peptide)
peptide: Ac-FTLDADF
notes: also called unlabeled P7; P7 peptide; source: synthetic peptide; bought: Peptide Institute, Inc
Consider B2, for which the IC50 in test [5] was 2.49 µM; in test [6], 9.22 µM.
